Source: patent US12648937B2, “Composition containing levamlodipine besylate hydrate and its preparation method” (SHIHUIDA PHARMACEUTICALS GROUP (JILIN) LTD., priority 2019, dated 2026)

Tests used:
[1] = Material properties (granulation, stickiness, sieving) of levamlodipine besylate hydrate composition granules; format: physicochemical; details: granules of given crystalline water content, finishing of granulation, 10 mesh
Source text: In order to meet the requirements for the production of solid-form preparation plain tablets, the preparation is a direct compression method. As such, the granules of the active pharmaceutical ingredient need to pass through a sieve below 10 mesh to ensure content uniformity. […] A hydrate composition with a crystalline water content of less than 5.8% can meet the requirements of the finishing of granulation. […] The crystalline water content of the hydrate being controlled below 5.5% can better meet the requirements of making pharmaceutical preparations. 1. Production of Samples: the method of Example 2 is used to prepare samples with corresponding water content.

[2] = Acute toxicity (LD50, Bliss method) of levamlodipine besylate hydrate composition tablets; details: Kunming, mouse, in vivo
Protocol: In this experiment the tablet formulation is the one of Example 5, in which the crystalline water content of the levamlodipine besylate hydrate composition is 5.3%.
In this experiment, the LD50 is measured by two administration routes. […] Animals: Kunming mice, half male and half […], each weighing 18-28 g, 10 animals in each group, fasted for 16 hours before use. Dosage: Oral administration: […], 0.6580 (g/kg), intraperitoneal administration: 0.7743, 0.6582, 0.5594, 0.4755, 0.4042 (g/kg) dose gradient: 0.85. Route of administration: experimental methods of oral administration and intraperitoneal administration, 100 mice are selected, fasted for 16 hours, and randomly divided into 10 groups. Oral administration to the first 5 groups, and the dose being 0.35 ml/10 g; intraperitoneal administration to the latter 5 groups, and the dose being 0.2 ml/10 g.

[3] = Thermal stability of hydrate compositions, 45° C. oven for 5 days, impurities by HPLC; format: physicochemical; details: for Impurity Content, impurities before heating of sample: 0 days; for Impurity Content, sample placed in 45° C. oven for 5 days: amber glass bottles
Protocol: Using the method of Example 2 of the present invention, compositions with different crystalline water content can be prepared and used as samples to test thermal stability.
The samples are placed in amber glass bottles, placed in an oven, and the temperature is adjusted to 45° C., and the relevant substances are tested after settled for 5 days.
The test method is as follows: The chromatographic conditions and system applicability test: Use octadecylsilane-bonded silica gel as the filler; methanol-0.03 mol/L potassium dihydrogen phosphate solution (75:25) as the mobile phase, the detection wavelength is 238 nm, the number of theoretical plates should be no less than 500 calculated in levamlodipine.
Preparation of the Test Solution: Take about 17 mg of this product, precisely weigh it, put it in a 100 ml volumetric flask, add a mobile phase to dissolve and dilute to the mark, shake well, precisely measure 5 ml, put it in a 25 ml volumetric flask, add a mobile phase to the mark, shake well to obtain the solution.
Determination Method: Precisely measure 10 μl of the reference solution and the test solution, inject into the liquid chromatography machine, record the chromatogram, measure the peak area, and calculate by the external standard method.

SMILES | Sieving Performance [1] | Impurity Content, impurities before heating of sample [3] | Impurity Content, sample placed in 45° C. oven for 5 days ([3]; 45° C. oven, 5 days) | also measured
CCOC(=O)C1=C(COCCN)NC(C)=C(C(=O)OC)[C@@H]1c1ccccc1Cl.O=S(=O)(O)c1ccccc1 [5.5%] | have no stickiness |  |  | Stickiness [1]: no stickiness
CCOC(=O)C1=C(COCCN)NC(C)=C(C(=O)OC)[C@@H]1c1ccccc1Cl.O=S(=O)(O)c1ccccc1 [5.8%] | have essentially no |  |  | Stickiness [1]: essentially no
CCOC(=O)C1=C(COCCN)NC(C)=C(C(=O)OC)[C@@H]1c1ccccc1Cl.O=S(=O)(O)c1ccccc1 [5.9%] | are less sticky |  |  | 
CCOC(=O)C1=C(COCCN)NC(C)=C(C(=O)OC)[C@@H]1c1ccccc1Cl.O=S(=O)(O)c1ccccc1 [6.0%] | stick together even |  |  | 
CCOC(=O)C1=C(COCCN)NC(C)=C(C(=O)OC)[C@@H]1c1ccccc1Cl.O=S(=O)(O)c1ccccc1 [(4 s)-2-[(2-aminoethoxy)methyl]-4-(2-chlorophenyl)-6-methyl-1,4-dihydro-3,5-pyridinedicarboxylic acid-3-ethyl ester, 5-methyl ester benzenesulfonate hydrate] |  |  |  | LD50 at 7 days ([2]; ip): 16 ± 1.38 mg/kg; LD50 at 7 days ([2]; po): 24.9 ± 1.75 mg/kg
CCOC(=O)C1=C(COCCN)NC(C)=C(C(=O)OC)[C@@H]1c1ccccc1Cl.O=S(=O)(O)c1ccccc1 [Sample 1] |  | None | 0.07% | change in the appearance ([3]; 45° C. oven, 5 days): no obvious change
CCOC(=O)C1=C(COCCN)NC(C)=C(C(=O)OC)[C@@H]1c1ccccc1Cl.O=S(=O)(O)c1ccccc1 [Sample 2] |  | None | None | 
CCOC(=O)C1=C(COCCN)NC(C)=C(C(=O)OC)[C@@H]1c1ccccc1Cl.O=S(=O)(O)c1ccccc1 [Sample 3] |  | None | None | 
